# Source: ChEMBL document CHEMBL4616670, “Phosphine Oxides from a Medicinal Chemist's Perspective: Physicochemical and in Vitro Parameters Relevant for Drug Discovery” (J Med Chem, 2020)
# Assays:
# physchem [1] = settings: octanol/water, pH 2
# Description: Octanol/water partition coefficient, log D of the compound at pH 2
# physchem [2] = settings: octanol/water, pH 11
# Description: Octanol/water partition coefficient, log D of the compound at pH 11
# in vitro [3] = settings: human, liver microsomes
# Description: Half life in human liver microsomes at 1 uM incubated prior to NADPH addition by LC-MS/MS analysis
# in vitro [4] = settings: human, liver microsomes; remark: listed apart in the source
# Description: Stability in human liver microsomes at 1 uM incubated prior to NADPH addition by LC-MS/MS analysis relative to hepatic blood flow
# physchem [5] = settings: pH 6.8 buffer
# physchem [6] = settings: pH 6.8 buffer; remark: listed apart in the source
# in vitro [7] = settings: human, Caco-2
# Description: Permeability across apical to basolateral side in human Caco2 cells measured up to 2 hrs by LC-MS/MS analysis or scintillation counting method
# in vitro [8] = settings: human, Caco-2; remark: listed apart in the source
# Description: Efflux ratio of permeability in human Caco2 cells measured up to 2 hrs by LC-MS/MS analysis or scintillation counting method
# in vitro [9] = settings: human, plasma
# Description: Protein binding in human plasma
# [10] = Chemical stability of the compound in MeOH/HCl solution at pH <1 assessed as compound decomposition measured after 1 day by UV-RP-HPLC analysis; type: physicochemical; settings: read-out: Drug degradation
# [11] = 168 h
# Description: Chemical stability of the compound in MeOH/NH3 solution at pH >10 assessed as compound decomposition measured after 7 days by UV-RP-HPLC analysis
# [12] = Basic dissociation constant, pKb of the compound by UV absorption spectra analysis or potentiometric titration technique; type: physicochemical
# physchem [13] = settings: MeOH/HCl solution
# Description: Chemical stability of the compound in MeOH/HCl solution at pH <1 assessed as compound decomposition measured after 7 days by UV-RP-HPLC analysis
# [14] = 24 h
# Description: Chemical stability of the compound in MeOH/NH3 solution at pH >10 assessed as compound decomposition measured after 1 day by UV-RP-HPLC analysis
# [15] = Equilibrium thermodynamic aqueous solubility of the compound in pH 2.1 buffer incubated for 24 hrs by UV-spectroscopy based shake flask method; type: physicochemical; settings: read-out: Therm_solubility
# [16] = Acid dissociation constant, pKa of the compound by UV absorption spectra analysis or potentiometric titration technique; type: physicochemical
# [17] = Equilibrium thermodynamic aqueous solubility of the compound in pH 5.9 buffer incubated for 24 hrs by UV-spectroscopy based shake flask method; type: physicochemical; settings: read-out: Therm_solubility
# [18] = Chemical stability of the compound in MeOH/H2O solution at pH >10 assessed as compound decomposition measured after 1 day by UV-RP-HPLC analysis; type: physicochemical; settings: read-out: Drug degradation
# [19] = Acid dissociation constant, pKa1 of the compound by UV absorption spectra analysis or potentiometric titration technique; type: physicochemical
# [20] = Acid dissociation constant, pKa2 of the compound by UV absorption spectra analysis or potentiometric titration technique; type: physicochemical
# [21] = Equilibrium thermodynamic aqueous solubility of the compound in pH 2.3 buffer incubated for 24 hrs by UV-spectroscopy based shake flask method; type: physicochemical; settings: read-out: Therm_solubility
# [22] = Equilibrium thermodynamic aqueous solubility of the compound in pH 2 buffer incubated for 24 hrs by UV-spectroscopy based shake flask method; type: physicochemical; settings: read-out: Therm_solubility
SMILES,logD (physchem [1]),half-life at 1 µM (in vitro [3]),hepatic extraction ratio at 1 µM (in vitro [4]),solubility thermodynamic at 24 h (physchem [5]),solubility thermodynamic at 24 h (physchem [6]),Papp A→B at 2 h (in vitro [7]),efflux ratio at 2 h (in vitro [8]),degraded at 168 h (physchem [13]),logD (physchem [2]),Drug degradation [11],other results
CN1CCCN(C)P1(=O)c1ccc(C(F)(F)F)cc1,3,> 2.17 h,< 0.23,> 68 µg/mL,11100 µg/mL,81 ×10⁻⁶ cm/s,0.5,–,2.7,< 10%,degraded at 24 h [10]: > 90%
CC1(C)COP(=O)(c2ccc(C(F)(F)F)cc2)OC1,3.1,> 2.17 h,< 0.23,> 67 µg/mL,2800 µg/mL,73 ×10⁻⁶ cm/s,0.6,< 10%,2.6,–,Drug degradation [14]: > 90%
O=P1(c2ccc(C(F)(F)F)cc2)NCCCO1 (stereo not given),2,> 2.17 h,< 0.23,> 60 µg/mL,–,57 ×10⁻⁶ cm/s,0.7,–,1.3,–,degraded at 24 h [10]: > 90%; Drug degradation [14]: > 90%
CCOP(=O)(O)c1ccc(C(F)(F)F)cc1,1.9,> 2.17 h,< 0.23,> 64 µg/mL,–,10 ×10⁻⁶ cm/s,< 0.1,< 10%,-0.8,< 10%,solubility thermodynamic at 24 h [15]: 280000 µg/mL
CP(=O)(O)c1ccc(C(F)(F)F)cc1,1.3,> 2.17 h,< 0.23,> 49 µg/mL,–,< 5 ×10⁻⁶ cm/s,–,< 10%,-1.3,< 10%,pKa [16]: 2; solubility thermodynamic at 24 h [17]: > 8900 µg/mL
O=P1(c2ccc(C(F)(F)F)cc2)OCCNCCO1,0.5,> 2.17 h,< 0.23,66 µg/mL,> 10000 µg/mL,63 ×10⁻⁶ cm/s,0.7,< 10%,1.5,–,pKb [12]: 6; degraded at 24 h [18]: 20%
O=P1(c2ccc(C(F)(F)F)cc2)NCCCN1,–,> 2.17 h,< 0.23,> 61 µg/mL,12300 µg/mL,42 ×10⁻⁶ cm/s,0.7,–,1.1,< 10%,degraded at 24 h [10]: > 90%
O=P1(c2ccc(C(F)(F)F)cc2)OCCCO1,2.1,> 2.17 h,< 0.23,> 66 µg/mL,8800 µg/mL,95 ×10⁻⁶ cm/s,0.4,< 10%,1.5,70%,Drug degradation [14]: > 90%
O=P(O)(O)c1ccc(C(F)(F)F)cc1,0.6,–,–,> 54 µg/mL,–,–,–,< 10%,< -1.6,< 10%,pKa [19]: < 2; pKa [20]: 6.8; solubility thermodynamic at 24 h [21]: 17800 µg/mL
COP(=O)(O)c1ccc(C(F)(F)F)cc1,1.3,> 2.17 h,< 0.23,> 60 µg/mL,–,–,–,< 10%,–,< 10%,solubility thermodynamic at 24 h [22]: 27300 µg/mL
CCOP(=O)(O)c1ccc(C(=O)Nc2ccc(C)c(Nc3nccc(-c4cccnc4)n3)c2)cc1,1,> 2.17 h,< 0.23,> 122 µg/mL,1100 µg/mL,< 0.1 ×10⁻⁶ cm/s,–,–,-0.6,–,fraction unbound (in vitro [9]): 0.046
CN1CCCOP1(=O)c1ccc(C(F)(F)F)cc1 (stereo not given),2.5,> 2.17 h,< 0.23,53 µg/mL,7500 µg/mL,64 ×10⁻⁶ cm/s,0.5,–,1.9,< 10%,degraded at 24 h [10]: > 90%
CN1CCN(C)P1(=O)c1ccc(C(F)(F)F)cc1,–,–,–,> 64 µg/mL,> 30000 µg/mL,–,–,–,2,< 10%,degraded at 24 h [10]: > 90%
Cc1ccc(NC(=O)c2ccc(P(=O)(O)O)cc2)cc1Nc1nccc(-c2cccnc2)n1,0.4,> 2.17 h,< 0.23,> 115 µg/mL,700 µg/mL,< 0.3 ×10⁻⁶ cm/s,–,–,-1,–,fraction unbound (in vitro [9]): 0.021

# More lines, main results first:
logD (physchem [1]),half-life at 1 µM (in vitro [3]),hepatic extraction ratio at 1 µM (in vitro [4]),solubility thermodynamic at 24 h (physchem [5]),solubility thermodynamic at 24 h (physchem [6]),Papp A→B at 2 h (in vitro [7]),efflux ratio at 2 h (in vitro [8]),degraded at 168 h (physchem [13]),SMILES,logD (physchem [2]),Drug degradation [11],other results
1.5,0.283 h,0.7,1 µg/mL,< 1 µg/mL,18 ×10⁻⁶ cm/s,1.6,–,CCOP(=O)(OCC)c1ccc(C(=O)Nc2ccc(C)c(Nc3nccc(-c4cccnc4)n3)c2)cc1,2.8,–,fraction unbound (in vitro [9]): 0.019
0.2,> 2.17 h,< 0.23,> 68 µg/mL,23000 µg/mL,84 ×10⁻⁶ cm/s,0.5,< 10%,CC(C)N1CCP(=O)(c2ccc(C(F)(F)F)cc2)CC1,2,< 10%,pKb [12]: 7
0.6,> 2.17 h,< 0.23,> 115 µg/mL,> 10000 µg/mL,< 0.1 ×10⁻⁶ cm/s,–,–,Cc1ccc(NC(=O)c2ccc(P(C)(=O)O)cc2)cc1Nc1nccc(-c2cccnc2)n1,-0.6,–,fraction unbound (in vitro [9]): 0.119
–,> 2.17 h,< 0.23,> 48 µg/mL,> 10000 µg/mL,15 ×10⁻⁶ cm/s,1.3,–,O=C(O)c1ccc(C(F)(F)F)cc1,–,–,pKa [16]: 3.5
–,–,–,> 63 µg/mL,–,–,–,< 10%,O=P(O)(OCCO)c1ccc(C(F)(F)F)cc1,–,< 10%,solubility thermodynamic at 24 h [15]: > 28500 µg/mL
0.4,> 2.17 h,< 0.23,77 µg/mL,20 µg/mL,0.1 ×10⁻⁶ cm/s,16,–,Cc1ccc(NC(=O)c2ccc(P(C)(C)=O)cc2)cc1Nc1nccc(-c2cccnc2)n1,1.5,–,fraction unbound (in vitro [9]): 0.163
0,> 2.17 h,< 0.23,> 61 µg/mL,28000 µg/mL,13 ×10⁻⁶ cm/s,1.1,< 10%,O=P1(c2ccc(C(F)(F)F)cc2)CCNCC1,0.5,< 10%,pKb [12]: 6.9
